Converted amounts (≈) assume the structure as drawn.
What was measured:
Staphylococcus aureus = test: Minimum inhibitory concentration against methicillin susceptible Staphylococcus aureus AP601055; format: functional
[1] = Minimum inhibitory concentration against Haemophilus influenzae ATCC 51907; format: functional
[2] = molecular target: T1, Amine oxidase [flavin-containing] A (Homo sapiens, UniProt P21397); test: Binding affinity for human liver monoamine oxidase A
T1 sequence (P21397 whole entry): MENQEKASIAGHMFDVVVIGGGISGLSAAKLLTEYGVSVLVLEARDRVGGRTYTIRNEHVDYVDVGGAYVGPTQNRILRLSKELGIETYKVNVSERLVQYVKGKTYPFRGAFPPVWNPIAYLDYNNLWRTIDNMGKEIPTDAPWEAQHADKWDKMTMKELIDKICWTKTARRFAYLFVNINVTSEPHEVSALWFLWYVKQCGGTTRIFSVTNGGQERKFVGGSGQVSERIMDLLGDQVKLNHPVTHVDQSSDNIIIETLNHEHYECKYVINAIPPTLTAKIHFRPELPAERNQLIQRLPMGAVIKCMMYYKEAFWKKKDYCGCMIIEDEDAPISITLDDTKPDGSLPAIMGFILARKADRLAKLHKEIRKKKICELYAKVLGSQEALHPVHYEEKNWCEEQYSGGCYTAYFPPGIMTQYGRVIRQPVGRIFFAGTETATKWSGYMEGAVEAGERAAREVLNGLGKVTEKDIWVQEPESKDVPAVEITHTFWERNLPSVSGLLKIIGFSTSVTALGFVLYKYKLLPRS

Streptococcus pneumoniae = test: Minimum inhibitory concentration against penicillin susceptible Streptococcus pneumoniae AP671401; format: functional

SMILES	MIC (Staphylococcus aureus) [µg/mL]	MIC [1] [µg/mL]	Ki [2] [µM]	MIC (Streptococcus pneumoniae) [µg/mL]
Cc1cnnn1C[C@H]1CN(c2ccc(C3=CCS(=O)(=O)CC3)c(F)c2)C(=O)O1	> 64	> 64	4.5	64 (≈ 157 µM)
C[Si](C)(C)C#Cc1cn(C[C@H]2CN(c3ccc(C4=CCS(=O)(=O)CC4)c(F)c3)C(=O)O2)nn1	> 64	> 64	> 200	1 (≈ 2.05 µM)
O=C1O[C@@H](Cn2nncc2F)CN1c1ccc(C2=CCS(=O)(=O)CC2)c(F)c1	32 (≈ 78 µM)	64 (≈ 156 µM)	1.6	8 (≈ 19.5 µM)
O=C1O[C@@H](Cn2cc(CO)nn2)CN1c1ccc(C2=CCS(=O)(=O)CC2)c(F)c1	32 (≈ 75.8 µM)	4 (≈ 9.47 µM)	47	2 (≈ 4.73 µM)
N#CCc1cn(C[C@H]2CN(c3ccc(C4=CCS(=O)(=O)CC4)c(F)c3)C(=O)O2)nn1	16 (≈ 37.1 µM)	2 (≈ 4.64 µM)	> 200	1 (≈ 2.32 µM)
O=C1O[C@@H](Cn2cc(COP(=O)(Oc3ccccc3)Oc3ccccc3)nn2)CN1c1ccc(C2=CCS(=O)(=O)CC2)c(F)c1	32 (≈ 48.9 µM)	64 (≈ 97.8 µM)	> 100	4 (≈ 6.11 µM)
O=C1O[C@@H](Cn2cc(C=C(Br)Br)nn2)CN1c1ccc(C2=CCS(=O)(=O)CC2)c(F)c1	> 64	> 64	> 100	4 (≈ 6.94 µM)
CC(C)(C)OC(=O)c1cn(C[C@H]2CN(c3ccc(C4=CCS(=O)(=O)CC4)c(F)c3)C(=O)O2)nn1	> 64	> 64	3.5	> 64

Now from value to compound:

MIC (Staphylococcus aureus) [µg/mL]	MIC [1] [µg/mL]	Ki [2] [µM]	MIC (Streptococcus pneumoniae) [µg/mL]	SMILES
1 (≈ 2.34 µM)	1 (≈ 2.34 µM)	3	0.25 (≈ 0.586 µM)	O=C1O[C@@H](Cn2cc(Cl)nn2)CN1c1ccc(C2=CCS(=O)(=O)CC2)c(F)c1
8 (≈ 16.1 µM)	8 (≈ 16.1 µM)	> 200	2 (≈ 4.02 µM)	O=C1O[C@@H](Cn2cc(/C=C/Br)nn2)CN1c1ccc(C2=CCS(=O)(=O)CC2)c(F)c1
4 (≈ 9.51 µM)	8 (≈ 19 µM)	> 200	2 (≈ 4.76 µM)	CCc1cn(C[C@H]2CN(c3ccc(C4=CCS(=O)(=O)CC4)c(F)c3)C(=O)O2)nn1
1 (≈ 2.44 µM)	2 (≈ 4.87 µM)	0.5	0.25 (≈ 0.609 µM)	O=C1O[C@@H](Cn2cc(F)nn2)CN1c1ccc(C2=CCS(=O)(=O)CC2)c(F)c1
16 (≈ 38.1 µM)	16 (≈ 38.1 µM)	3.2	2 (≈ 4.76 µM)	O=Cc1cn(C[C@H]2CN(c3ccc(C4=CCS(=O)(=O)CC4)c(F)c3)C(=O)O2)nn1
2 (≈ 4.24 µM)	2 (≈ 4.24 µM)	16	0.5 (≈ 1.06 µM)	O=C1O[C@@H](Cn2cc(Br)nn2)CN1c1ccc(C2=CCS(=O)(=O)CC2)c(F)c1
2 (≈ 4.8 µM)	2 (≈ 4.8 µM)	> 200	0.5 (≈ 1.2 µM)	C#Cc1cn(C[C@H]2CN(c3ccc(C4=CCS(=O)(=O)CC4)c(F)c3)C(=O)O2)nn1
1 (≈ 2.61 µM)	1 (≈ 2.61 µM)	5.9	0.25 (≈ 0.654 µM)	CC(=O)NC[C@H]1CN(c2ccc(C3=CCS(=O)(=O)CC3)c(F)c2)C(=O)O1
1 (≈ 2.55 µM)	2 (≈ 5.1 µM)	3.4	0.5 (≈ 1.27 µM)	O=C1O[C@@H](Cn2ccnn2)CN1c1ccc(C2=CCS(=O)(=O)CC2)c(F)c1
8 (≈ 18.4 µM)	32 (≈ 73.6 µM)	102	4 (≈ 9.21 µM)	CC(C)c1cn(C[C@H]2CN(c3ccc(C4=CCS(=O)(=O)CC4)c(F)c3)C(=O)O2)nn1
1 (≈ 2.46 µM)	2 (≈ 4.92 µM)	25	0.5 (≈ 1.23 µM)	Cc1cn(C[C@H]2CN(c3ccc(C4=CCS(=O)(=O)CC4)c(F)c3)C(=O)O2)nn1
